From PMC6255327, “Design of Antimicrobially Active Small Amphiphilic Peptide Dendrimers” (Molecules, 2009)
Counter-ions that a name gives are not always drawn.

Assays:
[1] = tested on: S. aureus ATCC 25923; assay: microbe, parasite or virus in culture; type: cell-based, Staphylococcus aureus; conditions: ATCC 25923, 24 h, pH 7.2; read-out: Minimal inhibitory concentration (MIC)
Procedure: (§1) Bacteria. Staphylococcus aureus ATCC 25923, Pseudomonas aeruginosa ATCC 27853, Escherichia coli ATCC 25922 and Staphylococcus aureus ATCC 43300 were cultivated on tryptone - soy agar (TSA; Oxoid). Klebsiella pneumoniaeATCC 13882, Bordetella bronchiseptica ATCC 4617, Acinetobacter baumannii ATCC 19606 were cultivated onto nutrient agar (Difco). Escherichia coli ATCC BAA-198 was cultivated on TSA with ceftazidime (10 µg/mL or 15.7 μM; Sigma). All strains were incubated during 24 hrs at 37 °C.
(§2) Medium. Mueller – Hinton Broth (Oxoid) was supplemented with cations: 12.5 mg Mg ^++/L and25 mg Ca^++/L. The pH of the medium after sterilization is between 7.2 and 7.4 [cation–adjusted Mueller – Hinton Broth” (CAMHB)].
(§3) Reference method. Broth microdilution susceptibility test was performed as described in […] reference method M7-A7 (2). A series of the twofold dendrimers dilutions in DMSO and twofold polymyxin B and penicillin G dilutions in CAMHB were diluted […] with CAMHB. Aliquots (95 µL) were dispensed into microdilution sterile plates (Mar-Four). Then, bacteria inoculum (5 µL) containing 5 × 10^4 CFU/mL were added. The final concentration of dendrimers ranged from 128 to 2 µg/mL [or 105 to 1.6 μM for an average molecular mass for 7 series (1213) and 61 to 0.9 μM for an average molecular mass for 10 series(2,103)], polymyxin B and penicillin G from 8 – 0.15 µg /mL (or 5.8 to 0.1 μM and 21.5 to 0.4 μM, respectively for polymyxin B and penicillin G), all in twofold dilution steps. The plates were incubated at 35 °C and read after 18 or 24 hours depending on bacterial strain. MICs (Minimal Inhibitory Concentration) was defined as the lowest drug concentration that reduced growth by 100%.

[2] = tested on: human red blood cells; assay: Hemolysis assay; type: cell-based; conditions: at a concentration of 400 μM, 1% hematocrit in PBS pH 7.4, 30 min at 23 °C, absorbance at 540 nm
Procedure: Dendrimer induced hemolysis was observed as previously reported. Briefly, serum free human red blood cells obtained from the Institute of Hematology and Transfusion Medicine in Warsaw, were suspended in phosphate buffered saline (PBS, pH 7.4). Prepared suspension of 1% hematocrit was incubated with serial concentration of dendrimers for 30 min at 23 °C. After centrifugation (1,000 rpm, 5 min) the absorbance of supernatant was measured at 540 nm (Jasco 630, Japan). A value of 100% hemolysis was determined by incubation of erythrocytes with double-distilled water (30 min at 23^o). In a control experiment, cells were incubated in buffer without peptide and absorbance at 540 nm value was used as a blank.
A - absorbance of the samples incubated with dendrimers; Ab – absorbance of the blank samples; A100% - absorbance of the reference; Ac - absorbance of red blood cells in PBS, hematocrit 1%.

[3] = tested on: K. pneumoniae ATCC 13882; type: cell-based, Klebsiella pneumoniae; conditions: ATCC 13882, 24 h
Procedure: as §1, §2, §3

[4] = tested on: A. baumani ATCC 19606; type: cell-based, Acinetobacter baumannii; conditions: ATCC 19606, 24 h
Procedure: as §1, §2, §3

[5] = tested on: C. krusei ATCC 6258; assay: microbe, parasite or virus in culture; type: cell-based, Candida krusei; conditions: ATCC 6258, 48 h, pH 7; read-out: Minimal inhibitory concentration (MIC)
Procedure: (§4) Yeasts: Candida albicans ATCC 90028, Candida parapsilosis ATCC 22019 and Candida krusei ATCC 6258 were cultivated onto Sabouraud dextrose agar (Difco) during 24 hrs at 35 °C.
(§5) Medium: RPMI – 1640 (Sigma) supplemented with 0.2% (wt/vol) glucose, 0.3 g/L L-glutamine, 0.0053 g/L phenol red, buffered with morpholinopropanesulfonic acid (MOPS; Sigma) at a final concentration of 0.165 M and adjusted to pH 7.0 was prepared.
(§6) Reference Method: The broth microdilution susceptibility test was performed as described in Clinical and Laboratory Standards Institute (CLSI) reference method M27 – A2 (1). A series of the twofold dendrimers and amphotericin B dilutions in DMSO were diluted 1:49 with RPMI.

[6] = tested on: P. aeruginosa ATCC 27853; type: cell-based, Pseudomonas aeruginosa; conditions: ATCC 27853, 24 h
Procedure: as §1, §2, §3

[7] = tested on: S. aureus ATCC 43300; type: cell-based, Staphylococcus aureus; conditions: ATCC 43300, 24 h
Procedure: as §1, §2, §3

[8] = tested on: C. albicans ATCC 90028; type: cell-based, Candida albicans; conditions: ATCC 90028, 48 h, pH 7
Procedure: as §4, §5, §6

[9] = tested on: B. bronchiseptica ATCC 4617; type: cell-based, Bordetella bronchiseptica; conditions: ATCC 4617, 24 h
Procedure: as §1, §2, §3

[10] = tested on: C. parapsilosis ATCC 22019; type: cell-based, Candida parapsilosis; conditions: ATCC 22019, 48 h, pH 7
Procedure: as §4, §5, §6

[11] = tested on: E.coli ATCC 25922; type: cell-based, Escherichia coli; conditions: ATCC 25922, 24 h
Procedure: as §1, §2, §3

[12] = tested on: E. coli ATCC BAA-198; type: cell-based, Escherichia coli; conditions: ATCC BAA-198, 24 h
Procedure: as §1, §2, §3

MIC [1] [µM] | Minimal inhibitory concentration (MIC) [3] [µM] | Minimal inhibitory concentration (MIC) [4] [µM] | MIC [5] [µM] | Minimal inhibitory concentration (MIC) [6] [µM] | Minimal inhibitory concentration (MIC) [7] [µM] | Minimal inhibitory concentration (MIC) [8] [µM] | Minimal inhibitory concentration (MIC) [9] [µM] | Minimal inhibitory concentration (MIC) [10] [µM] | Minimal inhibitory concentration (MIC) [11] [µM] | Minimal inhibitory concentration (MIC) [12] [µM] | SMILES | toxicity (hemolysis) [2] [%]
27.2 | 54 | 27.3 | 27.3 | 54 | 13.6 | 54 | 6.8 | 54 | 27.3 | 13.6 | NCCCC[C@H](NC(=O)OCc1ccccc1Cl)C(=O)N[C@@H](Cc1ccccc1)C(=O)NCCCN(CCCNC(=O)[C@H](Cc1ccccc1)NC(=O)[C@H](CCCCN)NC(=O)OCc1ccccc1Cl)CCC[C@@H](CO)N(CCCNC(=O)[C@H](Cc1ccccc1)NC(=O)[C@H](CCCCN)NC(=O)OCc1ccccc1Cl)CCCNC(=O)[C@H](Cc1ccccc1)NC(=O)[C@H](CCCCN)NC(=O)OCc1ccccc1Cl [Compound 10c, N,N',N,N’-tetrakis[(N^α-2-chlorobenzyloxycarbonyl)-L-lysil-L-phenylalanyl-3-aminopropyl]-L-α,δ-diaminopentanol hexahydrochloride] | 
3.4 | >54 | 3.4 | 3.4 | 14 | 1.7 | 6.8 | 1.7 | 3.4 | 6.8 | 3.4 | NCCCC[C@H](NC(=O)OCc1ccccc1Cl)C(=O)N[C@@H](Cc1ccccc1)C(=O)NCCCN(CCCC[C@@H](CO)N(CCCNC(=O)[C@H](Cc1ccccc1)NC(=O)[C@H](CCCCN)NC(=O)OCc1ccccc1Cl)CCCNC(=O)[C@H](Cc1ccccc1)NC(=O)[C@H](CCCCN)NC(=O)OCc1ccccc1Cl)CCCNC(=O)[C@H](Cc1ccccc1)NC(=O)[C@H](CCCCN)NC(=O)OCc1ccccc1Cl [Compound 10d, N,N',N,N’-tetrakis[(N^α-2-chlorobenzyloxycarbonyl)-L-lysil-L-phenylalanyl-3-aminopropyl]-L-α,ε-diaminohexanol hexahydrochloride] | 

SMILES | MIC [1] [µM] | Minimal inhibitory concentration (MIC) [3] [µM] | Minimal inhibitory concentration (MIC) [4] [µM] | MIC [5] [µM] | Minimal inhibitory concentration (MIC) [6] [µM] | Minimal inhibitory concentration (MIC) [7] [µM] | Minimal inhibitory concentration (MIC) [8] [µM] | Minimal inhibitory concentration (MIC) [9] [µM] | Minimal inhibitory concentration (MIC) [10] [µM] | Minimal inhibitory concentration (MIC) [11] [µM] | Minimal inhibitory concentration (MIC) [12] [µM] | toxicity (hemolysis) [2] [%]
NCCCC[C@H](NC(=O)OCc1ccccc1Cl)C(=O)NCCCN[C@@H](CCCN(CCCNC(=O)[C@H](CCCCN)NC(=O)OCc1ccccc1Cl)CCCNC(=O)[C@H](CCCCN)NC(=O)OCc1ccccc1Cl)C(=O)NCc1ccccc1 [Compound 7g, N,N,N’-tris[(N^α-2-chlorobenzyloxycarbonyl)-L-lysil-3-aminopropyl]-L-ornithine benzylamide penta-hydrochloride] | 10.9 | 87 | 5.4 | 5.4 | 21.8 | 10.9 | 10.9 | 2.7 | 5.4 | 21.8 | 10.9 | 32
